As a reminder, the inhibition is the percentage by which the read-out fell short of the control.

Each structure is given as a SMILES string. Like-named read-outs stand apart in the source and are kept apart here.

This assay has as its system rabbit isolated gastric glands. The experiment in a line: Inhibition of secretagogue-stimulated C-aminopyrine uptake in rabbit isolated gastric glands (anti-secretory activity, H+/K+ ATPase). The format is cell-based. The settings on record: 10^-4 M test compound, % inhibition of maximum response to secretagogue; for inhibition at 100 µM: Oryctolagus cuniculus. On the procedure:
Compounds of formula I were tested for anti-secretory activity by their ability to inhibit the effect of one or two secretagogues on isolated gastric glands.
Potential inhibitors of the highly specific proton transporting enzyme H^+ /K^+ ATPase were evaluated by a technique involving the measurement of aminopyrine accumulation in rabbit isolated gastric glands. Aminopyrine accumulates in acid-secreting cells; therefore, uptake of aminopyrine is increased by secretagogues and an inhibitor of acid secretion will reduce the response to one or more secretagogues depending upon its site of action. Compounds which reduce the response to dibutyryl cyclic adenosine monophosphate (DBcAMP) stimulation are assumed to have an intracellular site of action, and those which reduce the response to both DBcAMP and high potassium ion concentration (K^+) are thought to have an intracellular site of action at the secretory surface of the parietal cell, involving the highly specific proton-transporting enzyme, H^+ /K^+ ATPase.
The following procedure is used:
Rabbit glands are isolated from gastric mucosa from the corpus region of the stomach by a method based on one described by Berglindh T., Obrink K. J., Acta Physiol. Scand. 96, 150-159 (1976). Measurement of aminopyrine uptake is carried out using a procedure based on the method described by Berglindh T., Hellander H. F., Obrink K. J. (ibid. 97 401-414, 1976).
Compounds are tested at a concentration of 10^-4 M, for their ability to inhibit C-aminopyrine uptake in gastric glands, stimulated by DBcAMP and high K^+ respectively. Results are expressed as the % inhibition of the maximum response to the secretagogue induced by the test compound.

Where [1] appears, read: high K+-stimulated aminopyrine uptake, read-out: % Inhibition to stimulation by: k+.
Setting [2] is: DBcAMP-stimulated aminopyrine uptake, read-out: % Inhibition to stimulation by: DBcAMP.

As for `Cc1cc2nc3n(c2cc1C)Cc1ccccc1CS3` [8,13-Dihydro-4,5-dimethyldibenzo[d,h]imidazo[2,1-b][1,3]thiazepine], the “% Inhibition to stimulation by: DBcAMP” value (DBcAMP-stimulated aminopyrine uptake) is listed as “ns”. Further, the inhibition at 100 µM under setting [1] turned out to be 80%.
On to `[O-][S+]1Cc2ccccc2Cn2c1nc1ccccc12` (stereo not drawn) [8,13-Dihydrodibenz[d,h]imidazo[2,1-b][1,3]thiazepine-1-oxide], for which the “% Inhibition to stimulation by: k+” value (high K+-stimulated aminopyrine uptake) is given as “ns”. In addition, under setting [2], the inhibition at 100 µM was determined as 31%.
With `c1ccc2c(c1)CSc1nc3ccccc3n1C2` [8,13-Dihydrodibenzo[d,h]imidazo[2,1-b][1,3]thiazepine], the inhibition at 100 µM is, setting by setting: under setting [2], 32%; under setting [1], 94%.
